Data reported in patent publication US5759768A, “Assays for factors affecting circularization of DNA, assays for factors affecting DNA integration, factors, and uses thereof” (priority 1995, dated 1998).

Test system: viral DNA
Test: PCR analysis of circular viral DNA formed in vitro
Type: biochemical, HIV-1
Protocol: The following oligonucleotides were used for PCR: PBS, 5'-GTCGCCGCCCCTCGCCTC-3'(SEQ ID No. 1); tat, 5'-[…]-3'(SEQ ID No. 2); nef, 5'-[…]-3'(SEQ ID No. 3); R1, 5'-[…]-3'(SEQ ID No. 4); R2, 5'-[…]-3'(SEQ ID No. […]). One hundred microliter reactions contained 10 mM Tris hydrochloride (pH 8.3), 50 mM KCl, 1.5 mM MgCl2, 0.001% (w/v) gelatin, 200 μM each dATP, dCTP, dGTP, and dTTP, 1 μM each of the indicated primer, and 2.5 units of AmpliTaq recombinant Taq DNA polymerase (Perkin Elmer Cetus Co., Norwalk, Conn.). For amplification of viral DNA from cytoplasmic extracts, each reaction contained approximately 1/30 the amount of DNA from a 3 ml extract. For amplification of viral DNA from Hirt extractions, each reaction contained DNA from the equivalent of 2×10^6 cells. An initial denaturation step at 98° C. was performed for 10 minutes. Thirty cycles of the PCR reaction were then performed with an annealing temperature of 60° C. for 1 minute, an extension temperature of 72° C. for 5 minutes, and a denaturation temperature of 95° C. for 1 minute. Reaction products were visualized following electrophoresis on 1% agarose gel containing ethidium bromide. […]
Additional rounds of PCR amplification were necessary to detect the presence of a DNA fragment corresponding to the 2-LTR junction fragment when viral DNA from Hirt supernatants of infected cells were used, presumably due to the lower concentration of 2-LTR circles as compared to 1-LTR circles in these preparations (data not shown). Similarly, 2-LTR junction fragments were not readily detected among the amplification products of circular viral DNA formed in vitro, most likely due to the low concentration of simple 2-LTR circles and competition by the other forms of circular viral DNA (1-LTR circles and 2-LTR circles formed by autointergration) present at much higher concentrations. […]

**Q.** What does the source list for `Nc1ncnc2c1ncn2[C@@H]1O[C@H](COP(=O)(O)OP(=O)(O)OP(=O)(O)O)[C@@H](O)[C@H]1O` [ATP, adenosine triphosphate]?
**A.** PCR amplification product (2-LTR junction, R region primers) (SalI digested circular DNA formed with added ATP): A DNA fragment of the same size was detected; PCR amplification products (PBS and tat primers, autointegration) (extracts incubated with 1 mM ATP): a mixture of DNA fragments of heterogeneous lengths; PCR amplification product (1-LTR circle junction) (extracts treated with 1 mM ATP, PBS and nef primers): a DNA fragment having the size expected for a 1-LTR circle junction was generated
